Data set [1] has as its target T1, soybean lipoxygenase isoenzyme-1 (SLOX-1) (Glycine max, UniProt P08170).
T1 construct: purchased Merck and Sigma-Aldrich
T1 sequence (P08170 1-839): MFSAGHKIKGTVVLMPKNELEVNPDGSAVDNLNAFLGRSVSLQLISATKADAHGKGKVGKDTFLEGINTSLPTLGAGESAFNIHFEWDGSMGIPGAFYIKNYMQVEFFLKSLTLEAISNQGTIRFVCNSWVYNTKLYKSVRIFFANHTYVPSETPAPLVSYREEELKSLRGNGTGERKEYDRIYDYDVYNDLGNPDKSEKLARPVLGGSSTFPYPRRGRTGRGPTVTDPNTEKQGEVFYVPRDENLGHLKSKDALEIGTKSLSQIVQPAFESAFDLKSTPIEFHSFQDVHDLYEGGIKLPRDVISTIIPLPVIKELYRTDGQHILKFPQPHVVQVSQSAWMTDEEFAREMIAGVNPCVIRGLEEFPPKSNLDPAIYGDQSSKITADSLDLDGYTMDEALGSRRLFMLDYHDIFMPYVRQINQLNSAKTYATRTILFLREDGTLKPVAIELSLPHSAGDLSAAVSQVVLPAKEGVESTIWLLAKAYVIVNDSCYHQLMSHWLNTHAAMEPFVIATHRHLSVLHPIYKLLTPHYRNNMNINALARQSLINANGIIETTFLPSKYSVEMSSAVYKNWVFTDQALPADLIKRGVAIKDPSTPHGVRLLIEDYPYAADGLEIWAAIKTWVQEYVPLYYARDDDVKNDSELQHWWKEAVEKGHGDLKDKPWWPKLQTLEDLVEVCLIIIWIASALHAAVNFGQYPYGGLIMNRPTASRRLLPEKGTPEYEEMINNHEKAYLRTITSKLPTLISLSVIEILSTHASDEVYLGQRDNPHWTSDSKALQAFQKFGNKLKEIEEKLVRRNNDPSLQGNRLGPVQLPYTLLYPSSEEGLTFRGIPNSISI
Nature of the data set: In vitro inhibition of soybean lipoxygenase. The data set is classed as biochemical. As for the experimental part:
In vitro anti-LOX activities were evaluated using soybean lipoxygenase isoenzyme-1 (SLOX-1), a commonly used model for mammalian LOXs.
An in vitro study was conducted following a previously reported method. The tested compounds were dissolved in DMSO (100 µM) and incubated at room temperature with 0.1 mL of sodium linoleate as the substrate and 0.2 mL of soybean lipoxygenase solution in Tris-HCl buffer (pH 9.0).

A short description of data set [2]: In vitro inhibition of linoleic acid lipid peroxidation (AAPH). The following applies: 100 μM; anti-lipid peroxidation. From the text:
In the present study, the aim was to evaluate the anti-lipid peroxidation activities of the synthesized compounds 5a–i, 6a–i, 9a–i, and 11 and compare their efficacy to that of Trolox, a well-known antioxidant. Using the water-soluble compound 2,2′-azobis(2-amidinopropane) hydrochloride (AAPH), peroxyl radicals are generated through spontaneous thermal decomposition in vitro. This experimental setup imitated the lipid peroxidation processes occurring in cells due to radical activity allowing the investigation of the effectiveness of the tested compounds under conditions resembling cellular oxidative stress.
An in vitro assay was performed following previously established protocols. The compound 2,2′-Azobis(2-methylpropionamidine) dihydrochloride (AAPH) was used as a controlled source of thermally generated alkylperoxy free radicals. The formation of conjugated diene hydroperoxides through the oxidation of sodium linoleate in an aqueous dispersion at 37 °C was measured by monitoring absorbance at 234 nm. The results were compared with the reference compound, Trolox (93%) (Table 6).

The target of a further data set is T2, ovine COX-2 (Ovis aries, UniProt P79208).
T2 sequence (P79208 17-603): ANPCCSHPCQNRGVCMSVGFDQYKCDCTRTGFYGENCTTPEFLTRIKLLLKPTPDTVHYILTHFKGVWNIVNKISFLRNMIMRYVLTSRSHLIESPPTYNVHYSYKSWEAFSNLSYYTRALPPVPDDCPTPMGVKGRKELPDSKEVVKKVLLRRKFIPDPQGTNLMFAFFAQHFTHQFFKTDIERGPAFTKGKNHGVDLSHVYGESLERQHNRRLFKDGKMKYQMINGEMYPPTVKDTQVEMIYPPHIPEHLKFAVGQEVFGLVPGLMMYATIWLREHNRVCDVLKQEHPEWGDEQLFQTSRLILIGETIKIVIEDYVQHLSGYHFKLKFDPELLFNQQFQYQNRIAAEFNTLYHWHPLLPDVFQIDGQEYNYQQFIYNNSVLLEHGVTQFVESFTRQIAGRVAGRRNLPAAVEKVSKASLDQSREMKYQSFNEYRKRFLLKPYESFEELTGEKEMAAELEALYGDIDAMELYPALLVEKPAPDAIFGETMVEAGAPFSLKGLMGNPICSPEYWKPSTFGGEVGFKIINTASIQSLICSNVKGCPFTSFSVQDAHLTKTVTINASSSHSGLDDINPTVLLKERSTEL
Nature of the data set: In vitro inhibition of ovine cyclooxygenase-2.

A further data set has as its system MCF-7 cells. The data set is described as follows: MTT viability assay. The following applies: Homo sapiens, MCF7, 48 h. The data set is classed as cell-based. As for the experimental part: (§1) HeLa, MCF-7, U251, U87, MDA-MB-435, and MDA-MB-231 cancer cell lines were maintained in incubators at 37 °C with 5% CO2 in DMEM medium supplemented with 10% (v/v) fetal bovine serum (FBS) and antibiotics/antimycotics. All cell lines used in this study originate from the Laboratory of Biochemistry, Department of Chemistry, Aristotle University of Thessaloniki. They are low-passage, mycoplasma-free cancer cell lines that have been extensively used over the past 25 years in numerous studies across various fields of cancer research, including drug cytotoxicity testing.
(§2) All cell lines tested were seeded in 96-well plates at a concentration of 6 × 10^3 cells per well, except HeLa, which were seeded at 3 × 10^3 cells per well. The day after, cells were exposed to increasing concentrations of the compounds for 48 h. Cell viability was determined using the 3-(4,5-dimethylthiazol-2-yl)-2,5-diphenyltetrazolium bromide (MTT) assay, a colorimetric assessment of cellular metabolic activity as described previously. Absorbance values from treated samples were normalized to those of untreated controls, which were assigned to a 100% viability value.

The test system of the next data set is HeLa cells. Nature of the data set: MTT viability assay. The data set is classed as cell-based. The note with it: Homo sapiens; for pEC50: 48 h. The protocol: as §1, §2
The next data set addresses T3, bovine serum albumin (Bos taurus, UniProt P02769).
T3 construct: bovine serum albumin solution (fraction V); purchased Merck and Sigma-Aldrich; host or cells: bovine serum (fraction V)
Nature of the data set: In vitro inhibition of albumin denaturation. The following applies: heat denaturation, 60 °C 10 min. The protocol:
The ability of a compound to inhibit the thermal denaturation of albumin is considered an indicator of anti-inflammatory activity. Heat exposure simulates conditions of cellular stress or inflammation, during which protein and tissue damage occur. Certain substances can protect proteins from denaturation upon heating by stabilizing their structure and preventing aggregation and precipitation.
Inhibition of albumin denaturation was measured following the reported method. In a test tube, 1 mL of bovine serum albumin solution (fraction V, 1% w/v in phosphate buffer, pH 7.4) and 100 μL of the test compound solution were added sequentially. The mixture was incubated at 37 °C for 15 min, followed by heating at 60 °C for 10 min. After cooling to room temperature, the absorbance was measured at 660 nm. DMSO was used as the blank, and the results were compared to acetylsalicylic acid, which served as the reference compound (Table 6).

Data set [3] is described as follows: In vitro determination of NO release with Griess reagent. The following applies: 100 μM, L-cysteine, pH 7.4, 37 °C, 60 min. From the text:
This assay evaluates the ability of nitrate esters to release nitric oxide (NO). First, sodium nitroprusside (SNP) reacts with the thiol compound, cysteine, which serves as a reducing agent (Scheme 5). The thiol donates electrons, facilitating the breakdown of the nitroprusside complex. Afterwards, the reaction leads to the formation of intermediate complexes, such as nitrosothiol species and the decomposition of these intermediates results in the release of nitric oxide (NO). According to the literature, measurements are conducted both in the presence and absence of the thiol agent, cysteine. No significant difference was observed between the two experimental conditions, and the results were reproducible. Sodium nitroprusside (SNP) was used as the reference compound [65].
The compounds (from a 10 mM stock solution in DMSO, final concentration 100 μM) are added (20 μL) to each test tube. Then, 2 mL of phosphate buffer solution (pH 7.4) is added. L-cysteine, used as the thiol agent, is added to the mixture at a final concentration of 0.5 mM. The solution is incubated at 37 °C for 60 min, after which 1 mL is removed and mixed with 250 μL of Griess reagent (4 g sulfanilamide, 0.2 g N-(1-naphthyl)-ethylenediamine dihydrochloride, and 10 mL of H3PO4 solution, final volume adjusted to 100 mL). The mixture is allowed to stand for 10 min at room temperature, and the absorbance of the produced compound is measured at 540 nm. Sodium nitroprusside (SNP) is used as the reference compound. The results are presented as the release of NO2^− (% NO2^− (mol/mol)) induced by the compounds in the presence of L-cysteine (Table 6).

The target of another data set is T4, COX-1 (Homo sapiens, UniProt P23219).
T4 construct: purchased Merck and Sigma-Aldrich
T4 sequence (P23219 24-599): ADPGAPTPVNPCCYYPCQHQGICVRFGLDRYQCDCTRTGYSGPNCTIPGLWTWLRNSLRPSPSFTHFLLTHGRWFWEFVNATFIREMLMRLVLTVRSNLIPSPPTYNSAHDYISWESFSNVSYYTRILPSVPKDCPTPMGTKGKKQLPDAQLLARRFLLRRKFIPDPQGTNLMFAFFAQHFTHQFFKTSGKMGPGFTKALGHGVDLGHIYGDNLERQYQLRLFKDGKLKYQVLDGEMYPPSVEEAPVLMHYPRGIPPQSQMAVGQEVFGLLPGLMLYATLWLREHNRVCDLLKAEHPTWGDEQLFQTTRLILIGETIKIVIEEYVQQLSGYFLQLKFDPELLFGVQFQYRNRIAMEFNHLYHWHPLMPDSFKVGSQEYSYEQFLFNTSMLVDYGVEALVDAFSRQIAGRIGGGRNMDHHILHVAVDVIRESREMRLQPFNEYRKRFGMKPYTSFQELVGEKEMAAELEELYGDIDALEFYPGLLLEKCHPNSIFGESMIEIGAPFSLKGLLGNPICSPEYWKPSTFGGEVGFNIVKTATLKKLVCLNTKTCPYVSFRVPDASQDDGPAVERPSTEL
The data set is described as follows: In vitro inhibition of COX-1. The data set is classed as biochemical. From the text:
Enzyme inactivation can occur due to the accumulation of hydroperoxides formed from arachidonic acid or other fatty acid substrates. In order to prevent this in the in vitro experiment used for testing COX inhibition activity of the new molecules, a co-substrate like N,N,N′,N′-tetramethyl-p-phenylenediamine (TMPD) is included, as it undergoes co-oxidation by PGG2. The oxidized TMPD has a maximum absorbance at 590 nm. COX enzymes also depend on heme (Fe^3+-protoporphyrin IX) as a cofactor, which can dissociate during purification. To ensure maximum enzyme activity, heme is added to the reaction mixture during the in vitro assay for ovine COX-2 inhibition and COX-1 inhibition.
Cyclooxygenase (COX) activity was measured using arachidonic acid (AA) as the substrate and N,N,N′,N′-tetramethylphenylenediamine (TMPD) as the co-substrate following the reported method. […] The substrate oxidation was monitored at room temperature by recording the increase in absorbance at 590 nm. Absorbance due to the spontaneous oxidation of TMPD was subtracted from the initial oxidation rate observed in the presence of AA. The inhibitory activity of the test compounds at a concentration of 100 μM was evaluated after a 6-min pre-incubation with the enzyme in the presence of heme and TMPD.

The structures appear in SMILES notation. pEC50, pIC50: −log10 of the molar value.

T3 sequence (P02769 25-607): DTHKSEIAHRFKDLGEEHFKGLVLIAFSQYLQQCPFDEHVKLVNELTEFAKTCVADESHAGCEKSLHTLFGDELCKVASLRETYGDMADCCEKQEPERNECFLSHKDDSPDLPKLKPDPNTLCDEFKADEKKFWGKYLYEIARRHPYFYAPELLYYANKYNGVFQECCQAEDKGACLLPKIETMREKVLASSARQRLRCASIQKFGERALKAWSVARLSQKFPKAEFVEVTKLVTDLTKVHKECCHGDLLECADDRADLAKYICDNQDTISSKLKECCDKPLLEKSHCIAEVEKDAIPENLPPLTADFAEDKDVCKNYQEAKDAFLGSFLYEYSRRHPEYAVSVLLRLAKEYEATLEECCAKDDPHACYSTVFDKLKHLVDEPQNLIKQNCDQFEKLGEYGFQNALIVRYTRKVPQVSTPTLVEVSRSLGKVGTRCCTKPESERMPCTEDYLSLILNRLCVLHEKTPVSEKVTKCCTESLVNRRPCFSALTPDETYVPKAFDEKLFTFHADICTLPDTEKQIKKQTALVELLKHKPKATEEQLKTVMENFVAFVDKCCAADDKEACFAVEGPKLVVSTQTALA

Consider `O=C(OCc1c(-c2ccccc2)no[n+]1[O-])/C(=C/c1ccccc1)c1ccccc1` [Compound 9g, (E)-3-(((2,3-Diphenylacryloyl)oxy)methyl)-4-phenyl-1,2,5-oxadiazole 2-oxide], for which the pIC50 in data set [1] (pH 9.0, read-out: LOX Inh. IC50) is 4.26. The “AAPH Inh. at 100 μΜ” value in data set [2] is recorded as 90%. For the same compound, the “COX-2 Inh. IC50” value at ovine COX-2 is “no”. In addition, the pEC50 in the data set on MCF-7 cells is below 4.00; in the data set with HeLa cells it was 4.33. Further, the “Albumin (inhibition of albumin denaturation)” value at bovine serum albumin is on record as “no”. Moreover, in data set [3], the “%NO2^− Release mol/mol at 100 μΜ” value is reported as 3%.

As to `COc1cccc2c1C(=O)c1c(O)c3c(c(O)c1C2=O)C[C@@](O)(C(=O)CO)C[C@@H]3O[C@H]1C[C@H](N)[C@H](O)[C@H](C)O1` [doxorubicin, reference compound], the pIC50 with HeLa cells (48 h of exposure, read-out: IC50 in HeLa cells (positive control)) is around 6.30.

The compound `O=C(OCc1c(-c2ccccc2)no[n+]1[O-])/C(=C/c1cccs1)c1ccccc1` [Compound 9i, (E)-4-Phenyl-3-(((2-phenyl-3-(thiophen-2-yl)acryloyl)oxy)methyl)-1,2,5-oxadiazole 2-oxide] showed an inhibition at 100 µM on COX-1 of 49%. Also, the “LOX Inh. IC50” value in data set [1] (pH 9.0) is “no”. The “AAPH Inh. at 100 μΜ” value in data set [2] is “no”. The negative-log IC50 (pIC50) against ovine COX-2 was 4.15. For the same compound, the pEC50 with MCF-7 cells is below 4.00; with HeLa cells, 4.25. Besides, the “Albumin (inhibition of albumin denaturation)” value at bovine serum albumin was “no”.

(Values after article PMC12693419, “Design, Synthesis, Biological Evaluation, and In Silico Studies of Novel Multitarget Cinnamic Acid Hybrids” (Molecules, 2025).)
